In patent US20230270804A1, “ANTI-HYPERCHOLESTEROLEMIA COMPOSITION AND A METHOD OF MANUFACTURING THE SAME” (NBI BIOSCIENCES PRIVATE LIMITED, priority 2020, published 2023):
Entries after “also recorded” stand apart in the source; their conditions may differ.

Test system: heart, spleen, lungs, kidney, liver
Test: Prophylactic study: histopathology (heart, spleen, lungs, kidney, liver)
Format: in vivo, Wistar strain albino rats
Settings: HFD
Description: FIG. 1 depicts the histopathological images of heart.
FIG. 2 depicts the histopathological images of Spleen. […] However, this indicates the safety of the composition of the present invention on spleen.
FIG. 3 depicts the histopathological images of Lungs. […] However, this indicates the safety of the composition of the present invention on lungs.
FIG. 4 depicts the histopathological images of kidney. […] However, this indicates the safety of the composition of the present invention on kidney.
FIG. 5 depicts the histopathological images of liver. […] It also indicates the safety of the composition of the present invention on liver. The composition of the present invention was also found useful to prevent the deposition of the fat bodies.

`CC(C)c1c(C(=O)Nc2ccccc2)c(-c2ccccc2)c(-c2ccc(F)cc2)n1CC[C@@H](O)C[C@@H](O)CC(=O)O` [Statin, Atorvastatin] was tested, and the histopathology of heart was “relaxation in the cardiac muscles as the fat content was decreased” and the “histopathology of liver (fatty liver grade)” value (composition at OD and BD dose levels) was “dilation of hepatic portal triad was more evident; also recorded: from grade 2 to grade 1”.
